Common to all, as to format: biochemical
In one assay the target is Pim-1 (Homo sapiens (Human), UniProt P11309). As to the kind of experiment: Pim-1 kinase assay. The note with it: 1 mM ATP, biotin-labeled BAD peptide substrate; read-out: Pim1 IC50. The protocol:
(§1) Pim-1 and Pim-3 kinase assays-20 μL reactions were run in white 384 well polystyrene plates dotted with 0.8 μL compound/DMSO in the assay buffer (50 mM Tris, pH 7.5, 0.01% Tween-20, 5 mM MgCl2, 0.01% BSA, 5 mM DTT), containing […] Biotin-labeled BAD peptide substrate (AnaSpec 62269), 1 mM ATP, and 2.5 pM (Pim-1, Invitrogen PV3503) or 1.25 pM (Pim-3, Millipore 14-738) enzyme for 1 h at 25° C. Reactions were stopped by addition of 10 μL STOP Buffer (150 mM Tris, pH=7.5, 150 mM NaCl, 75 mM EDTA, 0.01% Tween-20, 0.3% BSA) supplemented with Phospho-Bad (Ser112) Antibody (Cell Signaling 9291) diluted 666-fold, and Streptavidin donor beads (PerkinElmer 6760002) along with Protein-A acceptor beads (PerkinElmer 6760137) at 15 μg/mL each. Supplementation of the STOP buffer with beads and stopping the reactions were done under reduced light. Prior to the stopping reactions STOP buffer with beads was pre-incubated for 1 h in the dark at room temperature. After stopping the reactions, plates were incubated for 1 h in the dark at room temperature before reading on a PHERAstar FS plate reader (BMG Labtech) under reduced light.

The next assay addresses Pim-2 (Homo sapiens (Human), UniProt Q9P1W9). Briefly: Pim-2 kinase assay. The note with it: 1 mM ATP, fluorescein-labeled CREBtide peptide substrate; read-out: Pim2 IC50. The protocol:
Pim-2 kinase assay-20 μL reactions were run in white 384 well polystyrene plates dotted with 0.8 μL compound/DMSO in the assay buffer (50 mM Tris, pH 7.5, 0.01% Tween-20, 5 mM MgCl2, 0.01% BSA, 5 mM DTT), containing 0.05 μm Fluorescein-labeled CREBtide peptide substrate (Invitrogen PV3508), 1 mM ATP, and 1 nM enzyme (Invitrogen PV3649) for 2 h at 25° C. Reactions were stopped by addition of 10 μL TR-FRET Dilution Buffer (Invitrogen PV3574) with 30 mM EDTA and 1.5 nM LanthaScreen Tb-CREB pSer133 antibody (Invitrogen PV3566). After 30 min. incubation at room temperature, plates were read on a PHERAstar FS plate reader (BMG Labtech).

A further assay addresses Pim-3 (Homo sapiens (Human), UniProt Q86V86). Briefly: Pim-3 kinase assay. As to conditions: 1 mM ATP, biotin-labeled BAD peptide substrate; read-out: Pim3 IC50. The protocol: as §1

Molecules are shown by their SMILES.

Among the data in patent US10000507B2, “Furo- and thieno-pyridine carboxamide compounds useful as pim kinase inhibitors” (Incyte Corporation, priority 2013, dated 2018) are IC50 values, retold here.

Chain of Pim-1 (P11309 whole entry): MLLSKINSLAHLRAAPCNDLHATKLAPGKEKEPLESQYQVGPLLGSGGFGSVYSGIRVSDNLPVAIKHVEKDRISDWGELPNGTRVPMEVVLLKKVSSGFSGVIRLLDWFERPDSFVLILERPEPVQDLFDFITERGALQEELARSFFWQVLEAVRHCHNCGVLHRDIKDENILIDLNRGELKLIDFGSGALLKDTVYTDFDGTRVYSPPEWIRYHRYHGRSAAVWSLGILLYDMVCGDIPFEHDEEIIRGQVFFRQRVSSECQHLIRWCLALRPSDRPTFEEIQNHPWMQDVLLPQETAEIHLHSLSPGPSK
Chain of Pim-2 (Q9P1W9 whole entry): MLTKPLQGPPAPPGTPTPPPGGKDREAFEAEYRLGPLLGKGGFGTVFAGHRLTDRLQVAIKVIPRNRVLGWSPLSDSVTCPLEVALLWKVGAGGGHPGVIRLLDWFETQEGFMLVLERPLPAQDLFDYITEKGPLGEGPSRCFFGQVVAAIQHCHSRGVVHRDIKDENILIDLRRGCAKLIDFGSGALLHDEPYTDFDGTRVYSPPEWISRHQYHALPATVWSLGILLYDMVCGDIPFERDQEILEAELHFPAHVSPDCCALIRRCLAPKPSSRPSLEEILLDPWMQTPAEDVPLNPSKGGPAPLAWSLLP

Broadly, the IC50 is the concentration that inhibits the measured activity by half. As for `CN1CC(c2cnc3c(C(=O)Nc4cnn(C)c4N4CCCC(N)CC4)c(N)sc3c2)C1` (stereo not drawn) [Example 32, 2-Amino-N-[5-(4-aminoazepan-1-yl)-1-methyl-1H-pyrazol-4-yl]-6-(1-methylazetidin-3-yl)thieno[3,2-b]pyridine-3-carboxamide], the IC50 at Pim-1 is ≤ 10 nM; at Pim-2 it was 100 to 1000 nM; on Pim-3, ≤ 10 nM.
As to `CC(C)N1CC(c2cnc3c(C(=O)Nc4cnccc4N4CCC[C@H](N)C4)c(N)sc3c2)C1` [Example 33, 2-Amino-N-{4-[(3S)-3-aminopiperidin-1-yl]pyridin-3-yl}-6-(1-isopropylazetidin-3-yl)thieno[3,2-b]pyridine-3-carboxamide], the IC50 on Pim-1 is ≤ 10 nM; on Pim-2 it was > 2000 nM; on Pim-3, 10 to 100 nM.
The corresponding values for `COCc1cnc2c(C(=O)Nc3cnccc3N3CCC[C@H](N)C3)c(N)sc2c1` [Example 34, 2-Amino-N-{4-[(3S)-3-aminopiperidin-1-yl]pyridin-3-yl}-6-(methoxymethyl)thieno[3,2-b]pyridine-3-carboxamide] are ≤ 10 nM, 100 to 1000 nM and ≤ 10 nM.
Consider `Nc1sc2cc(C3CCOCC3)cnc2c1C(=O)Nc1cnccc1N1CCC[C@H](N)C1` [Example 35, 2-Amino-N-{4-[(3S)-3-aminopiperidin-1-yl]pyridin-3-yl}-6-(tetrahydro-2H-pyran-4-yl)thieno[3,2-b]pyridine-3-carboxamide], for which the IC50 on Pim-1 is ≤ 10 nM; at Pim-2, 10 to 100 nM; on Pim-3, ≤ 10 nM.
For the molecule `Nc1sc2cc(F)cnc2c1C(=O)Nc1cnccc1N1CCC[C@H](N)C1` [Example 36, 2-Amino-N-{4-[(3S)-3-aminopiperidin-1-yl]pyridin-3-yl}-6-fluoro-thieno[3,2-b]pyridine-3-carboxamide], the values for the IC50 on Pim-1, at Pim-2 and on Pim-3 were ≤ 10 nM, 100 to 1000 nM and ≤ 10 nM, respectively.
With `Cn1ncc(NC(=O)c2c(N)sc3cc(F)cnc23)c1N1CCCC(N)CC1` (stereo not drawn) [Example 37, 2-Amino-N-[5-(4-aminoazepan-1-yl)-1-methyl-1H-pyrazol-4-yl]-6-fluoro-thieno[3,2-b]pyridine-3-carboxamide], the IC50 is ≤ 10 nM at Pim-1, 100 to 1000 nM on Pim-2 and ≤ 10 nM on Pim-3.
Turning to `Nc1sc2c(C(F)(F)F)ccnc2c1C(=O)Nc1cnccc1N1CCC[C@H](N)C1` [Example 38, 2-Amino-N-{4-[(3S)-3-aminopiperidin-1-yl]pyridin-3-yl}-7-trifluoromethyl-thieno[3,2-b]pyridine-3-carboxamide], the IC50 was ≤ 10 nM on Pim-1, 100 to 1000 nM on Pim-2 and ≤ 10 nM on Pim-3.
As for `Cn1ncc(NC(=O)c2c(N)sc3ccc(Cl)nc23)c1N1CCCC(N)CC1` (stereo not drawn) [Example 39, 2-Amino-N-[5-(4-aminoazepan-1-yl)-1-methyl-1H-pyrazol-4-yl]-5-chlorothieno[3,2-b]pyridine-3-carboxamide], the IC50 is ≤ 10 nM on Pim-1, 100 to 1000 nM on Pim-2 and ≤ 10 nM at Pim-3.
Regarding `Cn1ncc(NC(=O)c2c(N)sc3ccc(Cl)nc23)c1N1CCC[C@H](N)C1` [Example 41, 2-Amino-N-{5-[(3S)-3-aminopiperidin-1-yl]-1-methyl-1H-pyrazol-4-yl}-5-chlorothieno[3,2-b]pyridine-3-carboxamide], the IC50 on Pim-1 is ≤ 10 nM; on Pim-2, 100 to 1000 nM; at Pim-3 it was ≤ 10 nM.
Consider `Cc1ccc2sc(N)c(C(=O)Nc3cnn(C)c3N3CCCC(N)CC3)c2n1` (stereo not drawn) [Example 43, 2-Amino-N-[5-(4-aminoazepan-1-yl)-1-methyl-1H-pyrazol-4-yl]-5-methylthieno[3,2-b]pyridine-3-carboxamide], for which the IC50 on Pim-1 was ≤ 10 nM; at Pim-2, > 1000 nM; at Pim-3 it was 10 to 100 nM.
The corresponding values for `Cn1ncc(NC(=O)c2c(N)sc3ccc(-c4ccccc4)nc23)c1N1CCCC(N)CC1` (stereo not drawn) [Example 44, 2-Amino-N-[5-(4-aminoazepan-1-yl)-1-methyl-1H-pyrazol-4-yl]-5-phenylthieno[3,2-b]pyridine-3-carboxamide] are ≤ 10 nM, > 2000 nM and ≤ 10 nM.
For `Nc1oc2cccnc2c1C(=O)Nc1cnccc1N1CCC[C@H](N)C1` [Example 45, 2-Amino-N-{4-[(3S)-3-aminopiperidin-1-yl]pyridin-3-yl}furo[3,2-b]pyridine-3-carboxamide], the IC50 on Pim-1 is ≤ 10 nM; on Pim-2, 100 to 1000 nM; on Pim-3, ≤ 10 nM.
`Cn1ncc(NC(=O)c2c(N)oc3cccnc23)c1N1CCCC(N)CC1` (stereo not drawn) [Example 46, 2-Amino-N-[5-(4-aminoazepan-1-yl)-1-methyl-1H-pyrazol-4-yl]furo[3,2-b]pyridine-3-carboxamide]: the IC50 is ≤ 10 nM on Pim-1, > 2000 nM on Pim-2 and 10 to 100 nM at Pim-3.
The corresponding values for `CCc1cnc2c(C(=O)Nc3cnccc3N3CCC[C@H](N)C3)c(N)oc2c1` [Example 47, 2-Amino-N-{4-[(3S)-3-aminopiperidin-1-yl]pyridin-3-yl}-6-ethylfuro[3,2-b]pyridine-3-carboxamide] are ≤ 10 nM, 10 to 100 nM and ≤ 10 nM.
In the same order, the values of `Nc1oc2cc(C(F)(F)F)cnc2c1C(=O)Nc1cnccc1N1CCC[C@H](N)C1` [Example 48, 2-amino-N-{4-[(3S)-3-aminopiperidin-1-yl]pyridin-3-yl}-6-(trifluoromethyl)furo[3,2-b]pyridine-3-carboxamide] are ≤ 10 nM, 10 to 100 nM and ≤ 10 nM.
The corresponding values for `Cc1cnc2c(C(=O)Nc3cnccc3N3CCC[C@H](N)C3)c(N)oc2c1` [Example 49, 2-amino-N-{4-[(3S)-3-aminopiperidin-1-yl]pyridin-3-yl}-6-methyl-furo[3,2-b]pyridine-3-carboxamide] are ≤ 10 nM, 10 to 100 nM and ≤ 10 nM.
Regarding `CC(C)c1cnc2c(C(=O)Nc3cnccc3N3CCC[C@H](N)C3)c(N)oc2c1` [Example 50, 2-amino-N-{4-[(3S)-3-aminopiperidin-1-yl]pyridin-3-yl}-6-(iso-propyl)furo[3,2-b]pyridine-3-carboxamide], the IC50 was ≤ 10 nM at Pim-1, 10 to 100 nM on Pim-2 and ≤ 10 nM on Pim-3.
With `CCCc1cnc2c(C(=O)Nc3cnccc3N3CCC[C@H](N)C3)c(N)oc2c1` [Example 51, 2-amino-N-{4-[(3S)-3-aminopiperidin-1-yl]pyridin-3-yl}-6-(propyl)furo[3,2-b]pyridine-3-carboxamide], the IC50 is ≤ 10 nM on Pim-1, 10 to 100 nM at Pim-2 and ≤ 10 nM on Pim-3.
Take `Nc1oc2cc(F)cnc2c1C(=O)Nc1cnccc1N1CCC[C@H](N)C1` [Example 52, 2-amino-N-{4-[(3S)-3-aminopiperidin-1-yl]pyridin-3-yl}-6-fluoro-furo[3,2-b]pyridine-3-carboxamide]: the IC50 at Pim-1 is ≤ 10 nM; at Pim-2, 100 to 1000 nM; on Pim-3, ≤ 10 nM.
Turning to `Nc1oc2cc(Cl)cnc2c1C(=O)Nc1cnccc1N1CCC[C@H](N)C1` [Example 53, 2-amino-N-{4-[(3S)-3-aminopiperidin-1-yl]pyridin-3-yl}-6-chloro-furo[3,2-b]pyridine-3-carboxamide], the IC50 on Pim-1 was ≤ 10 nM; at Pim-2 it was 10 to 100 nM; at Pim-3 it was ≤ 10 nM.
As for `Nc1oc2cc(Br)cnc2c1C(=O)Nc1cnccc1N1CCC[C@H](N)C1` [Example 54, 2-amino-N-{4-[(3S)-3-aminopiperidin-1-yl]pyridin-3-yl}-6-bromo-furo[3,2-b]pyridine-3-carboxamide], the IC50 was ≤ 10 nM at Pim-1, 10 to 100 nM at Pim-2 and ≤ 10 nM on Pim-3.
Consider `Cc1ccnc2c(C(=O)Nc3cnccc3N3CCC[C@H](N)C3)c(N)oc12` [Example 55, 2-amino-N-{4-[(3S)-3-aminopiperidin-1-yl]pyridin-3-yl}-7-methyl-furo[3,2-b]pyridine-3-carboxamide], for which the results for the IC50 on Pim-1, at Pim-2 and on Pim-3 were 10 to 100 nM, > 2000 nM and ≤ 10 nM, respectively.
The corresponding values for `Cn1ncc(NC(=O)c2c(N)oc3cc(C(F)(F)F)cnc23)c1N1CCCC(N)CC1` (stereo not drawn) [Example 56, 2-amino-N-[5-(4-aminoazepan-1-yl)-1-methyl-1H-pyrazol-4-yl]-6-trifluoromethyl-furo[3,2-b]pyridine-3-carboxamide] are ≤ 10 nM, 10 to 100 nM and ≤ 10 nM.
